In patent US7186831B2, “5-halo-2-alkyl[1,2,4]triazolo[1,5-a]pyrimidin-7-amines” (priority 2001, dated 2007):

Assay: log P by HPLC
Assay type: physicochemical
Settings: EEC directive 79/831 Annex V. A8 by HPLC (gradient method, acetonitrile/0.1% aqueous phosphoric acid)

SMILES	logP
C=C(C)CN(CC)c1c(-c2c(F)cccc2F)c(Cl)nc2nc(C)nn12 [compound 339]	3.65
CCCCN(CC)c1c(-c2c(F)cccc2F)c(Cl)nc2nc(C)nn12 [compound 344]	3.82
Fc1cc(F)c(-c2c(Cl)nc3nc(C4CC4)nn3c2N2CCOCC2)c(F)c1 [compound 475]	3.02
CCN(CC(F)(F)F)c1c(-c2c(F)cc(F)cc2F)c(Cl)nc2nc(C)nn12 [compound 380]	3.42
Cc1nc2nc(Cl)c(-c3ccc(F)cc3F)c(N3CCC(C(F)(F)F)CC3)n2n1 [compound 293]	3.49
Cc1nc2nc(Cl)c(-c3ccc(F)cc3F)c(NC3CCCCC3C(F)(F)F)n2n1 (stereo not shown) [compound 408]	3.56
CC(C)CNc1c(-c2ccccc2Cl)c(Cl)nc2nc(C3CC3)nn12 [compound 492]	3.76
CCCN(CCOC)c1c(-c2c(F)cccc2F)c(Cl)nc2nc(C)nn12 [compound 348]	3.12
Cc1nc2nc(Cl)c(-c3c(F)cccc3F)c(N(C)CC(C)C)n2n1 [compound 335]	3.37
CONc1c(-c2c(F)cccc2F)c(Cl)nc2nc(C)nn12 [compound 436]	2.07
Cc1nc2nc(Cl)c(-c3c(F)cccc3F)c(NCC#N)n2n1 [compound 420]	1.91
Cc1nc2nc(Cl)c(-c3ccccc3F)c(NOC3CCCCO3)n2n1 (stereo not shown) [compound 375]	2.59
CCC(C)Nc1c(-c2c(F)cccc2Cl)c(Cl)nc2nc(C3CC3)nn12 (stereo not shown) [compound 478]	3.66
CC1=CCCN(c2c(-c3ccc(F)cc3F)c(Cl)nc3nc(C)nn23)C1 [compound 291]	3.49
C#CCN(C)c1c(-c2ccc(F)cc2F)c(Cl)nc2nc(C)nn12 [compound 351]	2.67
Cc1nc2nc(Cl)c(-c3ccccc3F)c(NOCc3cc(Cl)cc(Cl)c3)n2n1 [compound 364]	3.76
Cc1nc2nc(Cl)c(-c3c(F)cccc3Cl)c(N(C)CC(C)C)n2n1 [compound 276]	3.68
Cc1nc2nc(Cl)c(-c3ccc(F)cc3F)c(N3CCCC3C)n2n1 (stereo not shown) [compound 280]	3.14
Cc1nc2nc(Cl)c(-c3ccccc3F)c(N3CC(C)OC(C)C3)n2n1 (stereo not shown) [compound 382]	2.8
CCOC(=O)CN(CC)c1c(-c2ccc(F)cc2F)c(Cl)nc2nc(C)nn12 [compound 355]	3.04
CCN(CC1CCCO1)c1c(-c2c(F)cccc2Cl)c(Cl)nc2nc(C)nn12 (stereo not shown) [compound 268]	3.29
Cc1nc2nc(Cl)c(-c3c(F)cccc3F)c(N3CCCCC3C(F)(F)F)n2n1 (stereo not shown) [compound 423]	3.33
Cc1nc2nc(Cl)c(-c3ccccc3F)c(NOC(C)C)n2n1 [compound 378]	2.54
CN(CC1CC1(Cl)Cl)c1c(-c2ccc(F)cc2F)c(Cl)nc2nc(C3CC3)nn12 (stereo not shown) [compound 507]	4.18
Cc1nc2nc(Cl)c(-c3c(F)cccc3F)c(NCC(F)(F)F)n2n1 [compound 424]	2.56
Cc1nc2nc(Cl)c(-c3c(F)cccc3F)c(NC(C)(C)C(F)(F)F)n2n1 [compound 421]	3.34
CCN(CC1CCCO1)c1c(-c2c(F)cccc2F)c(Cl)nc2nc(C)nn12 (stereo not shown) [compound 341]	3
CCOC(=O)CN(C)c1c(-c2ccc(F)cc2F)c(Cl)nc2nc(C)nn12 [compound 410]	2.8
CCONc1c(-c2ccccc2F)c(Cl)nc2nc(C)nn12 [compound 362]	2.28

Same assay, conditions: HPLC, gradient method, acetonitrile/0.1% aqueous phosphoric acid; EEC directive 79/831 Annex V. A8

SMILES	logP
CCCN(CCOC)c1c(-c2ccc(F)cc2F)c(Cl)nc2nc(C)nn12 [compound 209]	3.26
Cc1nc2nc(Cl)c(-c3c(F)cc(F)cc3F)c(NC3CC3)n2n1 [compound 65]	2.51
OC1CCCN(c2c(-c3ccc(F)cc3F)c(Cl)nc3nc(C4CC4)nn23)C1 (stereo not shown) [compound 614]	2.57
Cc1nc2nc(Cl)c(-c3ccccc3Cl)c(N3CCC(C)CC3)n2n1 [compound 230]	3.94
Cc1nc2nc(Cl)c(-c3ccccc3Cl)c(NCC(C)C)n2n1 [compound 210]	3.1
CC(Nc1c(-c2ccc(F)cc2Cl)c(Cl)nc2nc(C3CC3)nn12)C(F)(F)F (racemic) [compound 748]	3.77
CC(Nc1c(-c2ccc(F)cc2F)c(Cl)nc2nc(C3CC3)nn12)C1CCCCC1 (stereo not shown) [compound 653]	4.84
Cc1nc2nc(Cl)c(-c3ccc(F)cc3F)c(N(C)Cc3ccco3)n2n1 [compound 204]	3.1
CCN(Cc1ccco1)c1c(-c2c(F)cc(F)cc2F)c(Cl)nc2nc(C)nn12 [compound 158]	3.55
Cc1nc2nc(Cl)c(-c3ccc(Cl)cc3Cl)c(N3CCCCN3)n2n1 [compound 784]	3.35
Cc1nc2nc(Cl)c(-c3ccc(F)c(Cl)c3)c(NC(C)C(F)(F)F)n2n1 (stereo not shown) [compound 97]	3.32
CON(C)c1c(-c2c(F)cccc2F)c(Cl)nc2nc(C)nn12 [compound 143]	2.54
Fc1cccc(Cl)c1-c1c(Cl)nc2nc(C3CC3)nn2c1N1CCC(F)CC1 [compound 707]	3.63
CN(CCCl)c1c(-c2ccc(F)cc2F)c(Cl)nc2nc(C3CC3)nn12 [compound 721]	3.5
C=C(C)CNc1c(-c2c(F)cccc2F)c(Cl)nc2nc(C)nn12 [compound 183]	2.56
Fc1ccc(-c2c(Cl)nc3nc(C4CC4)nn3c2N2CCC(Br)CC2)c(F)c1 [compound 732]	4.08
CC1CC(C)CN(c2c(-c3ccc(F)cc3F)c(Cl)nc3nc(C4CC4)nn23)C1 (stereo not shown) [compound 610]	4.72
Fc1cc(F)c(-c2c(Cl)nc3nc(C(F)(F)F)nn3c2NCC2CC2)c(F)c1 [compound 111]	3.89
Cc1nc2nc(Cl)c(-c3c(F)cc(F)cc3F)c(NC(C)C(F)(F)F)n2n1 (stereo not shown) [compound 12]	3.01
Cc1nc2nc(Cl)c(-c3c(F)cccc3F)c(NCC3CC3)n2n1 [compound 181]	2.62
COCCNc1c(-c2c(F)cc(F)cc2F)c(Cl)nc2nc(C)nn12 [compound 64]	2.34
CC1C=CC(C)N1c1c(-c2ccccc2Cl)c(Cl)nc2nc(C3CC3)nn12 (stereo not shown) [compound 580]	4.19
CC(C)(C)CNc1c(-c2ccc(F)cc2F)c(Cl)nc2nc(C(F)(F)F)nn12 [compound 527]	4.4
Cc1nc2nc(Cl)c(-c3ccc(F)cc3F)c(NCC3CC3)n2n1 [compound 200]	2.77
Cc1nc2nc(Cl)c(-c3c(F)cccc3F)c(N3CCCCC3)n2n1 [compound 171]	3.17
COC(=O)CN(C)c1c(-c2c(F)cccc2F)c(Cl)nc2nc(C)nn12 [compound 565]	2.32
CC(C)C(C)Nc1c(-c2ccc(Cl)cc2Cl)c(Cl)nc2nc(C3CC3)nn12 (single isomer, unassigned) [compound 758]	4.72

SMILES	logP
Cc1nc2nc(Cl)c(-c3ccc(F)cc3Cl)c(N[C@@H](C)C(F)(F)F)n2n1 (single isomer, unassigned) [compound 641]	3.2
C=CCN(CC)c1c(-c2c(F)cccc2F)c(Cl)nc2nc(C)nn12 [compound 568]	3.3
Cc1nc2nc(Cl)c(-c3ccc(F)cc3Cl)c(N3CCCCO3)n2n1 [compound 589]	3.23
Cc1nc2nc(Cl)c(-c3c(F)cc(F)cc3F)c(N(C)Cc3ccco3)n2n1 [compound 153]	3.22
CC(C)Nc1c(-c2ccccc2Cl)c(Cl)nc2nc(C3CC3)nn12 [compound 17]	3.39
Fc1ccc(-c2c(Cl)nc3nc(C4CC4)nn3c2NC2CCC(C(F)(F)F)CC2)c(F)c1 (stereo not shown) [compound 659]	3.93
CCOC(=O)CN(CC)c1c(-c2c(F)cc(F)cc2F)c(Cl)nc2nc(C)nn12 [compound 160]	3.14
Cc1nc2nc(Cl)c(-c3c(F)cc(F)cc3F)c(N3CCSC3)n2n1 [compound 112]	2.84
C=CCN(CC)c1c(-c2ccccc2Cl)c(Cl)nc2nc(C)nn12 [compound 224]	3.5
Cc1nc2nc(Cl)c(-c3ccc(F)cc3Cl)c(N3CCCCN3)n2n1 [compound 691]	2.94
Fc1ccc(-c2c(Cl)nc3nc(C(F)(F)F)nn3c2N2CCC(C(F)(F)F)CC2)c(F)c1 [compound 805]	4.43
CCN(CCOC)c1c(-c2c(F)cccc2Cl)c(Cl)nc2nc(C3CC3)nn12 [compound 701]	3.66
CCc1nc2nc(Cl)c(-c3c(F)cc(F)cc3F)c(NCC3CC3)n2n1 [compound 81]	3.23
Cc1nc2nc(Cl)c(-c3c(F)cccc3F)c(N3CCC(C(F)(F)F)CC3)n2n1 [compound 180]	3.36
C=C(C)CNc1c(-c2ccc(F)cc2F)c(Cl)nc2nc(C(F)(F)F)nn12 [compound 534]	3.75
Cc1nc2nc(Cl)c(-c3ccc(F)cc3Cl)c(NC(C)C(F)(F)F)n2n1 (racemic) [compound 640]	3.19
Cc1nc2nc(Cl)c(-c3c(F)cc(F)cc3F)c(NCC(C)(C)C)n2n1 [compound 146]	3.5
CC(C)C(C)Nc1c(-c2c(F)cccc2Cl)c(Cl)nc2nc(C3CC3)nn12 (stereo not shown) [compound 583]	4.12
Cc1nc2nc(Cl)c(-c3c(F)cc(F)cc3F)c(N(C)CCN(C)C)n2n1 [compound 148]	1.5
Cc1nc2nc(Cl)c(-c3ccc(F)cc3Cl)c(N[C@@H](C)C(F)(F)F)n2n1 (single isomer, unassigned) [compound 642]	3.17
COC(=O)CNc1c(-c2c(F)cc(F)cc2F)c(Cl)nc2nc(C)nn12 [compound 125]	2.13
CC1C=CC(C)N1c1c(-c2c(F)cccc2Cl)c(Cl)nc2nc(C3CC3)nn12 (stereo not shown) [compound 584]	4.15
Fc1cc(F)c(-c2c(Cl)nc3nc(C(F)(F)F)nn3c2N2CCOCC2)c(F)c1 [compound 34]	3.22
C=C(C)CN(C)c1c(-c2c(F)cc(F)cc2F)c(Cl)nc2nc(C)nn12 [compound 155]	3.55
Cc1nc2nc(Cl)c(-c3c(F)cc(F)cc3F)c(NC(C)C(F)(F)F)n2n1 (stereo not shown) [compound 113]	3.03
Fc1cc(F)c(-c2c(Cl)nc3nc(C(F)(F)F)nn3c2NC2CC2)c(F)c1 [compound 35]	3.53
